The values that follow come from EP3170833B1, “20,23-PIPERIDINYL-5-O-MYCAMINOSYL-TYLONOLIDE POLYMORPHS” (Intervet International B.V., priority 2007, dated 2009).

The structures appear in SMILES notation.

Assay type in all cases: physicochemical
One series is described as follows: Solubility in tBME. The settings on record: solvent tBME.
A short description of series [1]: Desolvation experiment: drying under vacuum. As to the method:
A weight loss of from about 8.7-10% occurred due to tBME liberation. This weight loss corresponds to 0.8-0.9 tBME molecule per molecule of 20,23-dipiperidinyl-5-O-mycaminosyl-tylonolide, assuming essentially pure 20,23-dipiperidinyl-5-O-mycaminosyl-tylonolide. Almost all the weight loss occurs above 90°C, with a sharp step when the temperature increases to greater than 100°C. Thus, the majority of the weight loss occurs at temperatures greater than the boiling point of tBME.
Example 7. Preparation of the Form III polymorph of 20,23-dipiperidinyl-5-O-mycaminosyl-tylonolide. The Form III polymorph of 20,23-dipiperidinyl-5-O-mycaminosyl-tylonolide was prepared by drying, under vacuum at ambient temperature for 20 hours, the ethyl acetate S1 crystalline solvate of 20,23-dipiperidinyl-5-O-mycaminosyl-tylonolide (50 mg) prepared in accordance with Example 6.
Although this procedure was successfully repeated for forming S2 solvate crystals, additional batches of S2 solvate crystals were formed by dissolving an additional amount of the Form II polymorph of 20,23-dipiperidinyl-5-O-mycaminosyl-tylonolide in tert-butyl methyl ether, seeding S2 solvate crystals from the first batch, and removing the tert-butyl methyl ether. In one experiment, the S2 crystalline solvate was prepared by dissolving the Form II polymorph of 20,23-dipiperidinyl-5-O-mycaminosyl-tylonolide (245.7 mg) in tert-butyl methyl ether (0.5 ml), and slowly evaporating a portion of the solvent at ambient temperature. After no crystals formed, additional tert-butyl methyl ether was added, followed by seeding S2 solvate crystals from the first batch. The solvent was then allowed to evaporate completely. The FT-Raman spectrum for these crystals was approximately identical to the FT-Raman spectrum for the crystals from the first batch. […] The FT-Raman spectra of the crystals after each drying step coincided to the FT-Raman spectrum from the first batch.

Series [2] in a line: Dynamic vapor sorption (DVS). The note with it: 25°C; for maximum water uptake: at 95% relative humidity. As to the method: Dynamic vapor sorption ("DVS") measurements were obtained with a Projekt Messtechnik SPS11-100n water vapor sorption analyzer. The samples were placed into aluminum crucibles on a microbalance, and allowed to equilibrate at 25°C and 50% relative humidity before initiating the following pre-defined humidity program at 25°C: 50-95-0-50% relative humidity, and scanning with a 5% change in relative humidity per hour and with iso-humid equilibration periods at extreme values.

A short description of series [3]: Thermogravimetry (TG / TG-FTIR): thermal stability. The note with it: N2 atmosphere, heating rate of 10°C/min. As to the method:
Measurements of thermogravimetry coupled to Fourier transform infrared spectroscopy ("TG-FTIR") were obtained using a Netzsch Thermo-Microbalance TG 209 with a Bruker Vector 22 FT-IR Spectrometer using an aluminum crucible (with micro-hole or open), N2 atmosphere, heating rate of 10°C/min, and temperature range of 25-250°C.
Thermogravimetry ("TG") measurements were obtained with a Perkin Elmer TGS 2 thermogravimetric analyzer using an aluminum crucible (open), N2 atmosphere, heating rate of 10°C/min, and temperature range of 25-500°C.

As to `CC[C@H]1OC(=O)C[C@@H](O)[C@H](C)[C@@H](O[C@@H]2O[C@H](C)[C@@H](O)[C@H](N(C)C)[C@H]2O)[C@@H](CCN2CCCCC2)C[C@@H](C)C(=O)/C=C/C(C)=C/[C@@H]1CN1CCCCC1` [tBME S2 crystalline solvate, 20,23-dipiperidinyl-5-O-mycaminosyl-tylonolide], the solubility (as a rule, how much of the substance goes into solution per volume) in “Solubility in tBME” is 40 to 50 mg/mL. Besides, the stability entry in series [1] (60°C at 1 mbar (absolute) for 1 day) was “exhibits stability”. For the same molecule, the “loss of solvent upon drying under vacuum” value in series [1] (at both ambient temperature and 70°C) was “no loss of solvent was observed”.

As to `CCC1OC(=O)CC(O)C(C)C(OC2OC(C)C(O)C(N(C)C)C2O)C(CCN2CCCCC2)CC(C)C(=O)C=CC(C)=CC1CN1CCCCC1` (stereo not drawn) [ethyl acetate S1 crystalline solvate, 20,23-dipiperidinyl-5-O-mycaminosyl-tylonolide], the “conversion by vacuum drying” value in series [1] (vacuum drying at ambient temperature) is recorded as “readily converted into the Form III polymorph”.

Regarding `CCC1OC(=O)CC(O)C(C)C(OC2OC(C)C(O)C(N(C)C)C2O)C(CCN2CCCCC2)CC(C)C(=O)C=CC(C)=CC1CN1CCCCC1` (stereo not drawn) [Form III polymorph, 20,23-dipiperidinyl-5-O-mycaminosyl-tylonolide], in series [2] (between 70 and 85% relative humidity), the water uptake entry was “about 6%”. Besides, the “temperature at which decomposition began” value in series [3] (TG) was “greater than 270 °C”.

`CCC1OC(=O)CC(O)C(C)C(OC2OC(C)C(O)C(N(C)C)C2O)C(CCN2CCCCC2)CC(C)C(=O)C=CC(C)=CC1CN1CCCCC1` (stereo not drawn) [Form I polymorph, 20,23-dipiperidinyl-5-O-mycaminosyl-tylonolide]: in series [2], the maximum water uptake result is reported as “less than 1 % (by weight)”.

On to `CCC1OC(=O)CC(O)C(C)C(OC2OC(C)C(O)C(N(C)C)C2O)C(CCN2CCCCC2)CC(C)C(=O)C=CC(C)=CC1CN1CCCCC1` (stereo not drawn) [Form II polymorph, 20,23-dipiperidinyl-5-O-mycaminosyl-tylonolide], for which the maximum water uptake entry in series [2] was “about 2 % (by weight)”. Further, in series [3] (TG-FTIR), the “temperature at which decomposition began” value was “greater than 220 °C”.
